Experimental data from ChEMBL document CHEMBL3044945, “Synthesis of 1,3,5-trisubstituted pyrazoline nucleus containing compounds and screening for antimicrobial activity” (2012).
Values after ≈ are worked out from the molar mass of the structure shown.

Key:
Type in all cases: functional
Penicillium chrysogenum [1] = assay: Antifungal activity against Penicillium chrysogenum MTCC 161 at 250 ug/ml after 48 hr by cup-plate method; conditions: MTCC 161, 48 h, read-out: DIZ
Aspergillus niger [2] = assay: Antifungal activity against Aspergillus niger MTCC 2546 at 1000 ug/ml after 48 hr by cup-plate method; conditions: MTCC 2546, 48 h, read-out: DIZ
Pseudomonas aeruginosa [3] = assay: Antibacterial activity against Pseudomonas aeruginosa MTCC 424 at 750 ug/ml after 48 hr by cup-plate method; conditions: MTCC 424, 48 h, read-out: DIZ
Bacillus pumilus [4] = assay: Antibacterial activity against Bacillus pumilus MTCC 1456 at 250 ug/ml after 48 hr by cup-plate method; conditions: MTCC 1456, 48 h, read-out: DIZ
Micrococcus luteus [5] = assay: Antibacterial activity against Micrococcus luteus MTCC 1538 at 1000 ug/ml after 48 hr by cup-plate method; conditions: MTCC 1538, 48 h, read-out: DIZ
Bacillus pumilus [6] = assay: Antibacterial activity against Bacillus pumilus MTCC 1456 after 24 to 48 hr by tube dilution method
Pseudomonas fluorescens [7] = assay: Antibacterial activity against Pseudomonas fluorescens MTCC 2421 at 750 ug/ml after 48 hr by cup-plate method; conditions: MTCC 2421, 48 h, read-out: DIZ
Pseudomonas fluorescens [8] = assay: Antibacterial activity against Pseudomonas fluorescens MTCC 2421 at 1000 ug/ml after 48 hr by cup-plate method; conditions: MTCC 2421, 48 h, read-out: DIZ
Bacillus subtilis [9] = assay: Antibacterial activity against Bacillus subtilis MTCC 441 at 1000 ug/ml after 48 hr by cup-plate method; conditions: MTCC 441, 48 h, read-out: DIZ
Penicillium chrysogenum [10] = assay: Antifungal activity against Penicillium chrysogenum MTCC 161 at 500 ug/ml after 48 hr by cup-plate method; conditions: MTCC 161, 48 h, read-out: DIZ
Bacillus subtilis [11] = assay: Antibacterial activity against Bacillus subtilis MTCC 441 at 500 ug/ml after 48 hr by cup-plate method; conditions: MTCC 441, 48 h, read-out: DIZ
Pseudomonas fluorescens [12] = assay: Antibacterial activity against Pseudomonas fluorescens MTCC 2421 at 1250 ug/ml after 48 hr by cup-plate method; conditions: MTCC 2421, 48 h, read-out: DIZ
Micrococcus luteus [13] = assay: Antibacterial activity against Micrococcus luteus MTCC 1538 at 250 ug/ml after 48 hr by cup-plate method; conditions: MTCC 1538, 48 h, read-out: DIZ
Pseudomonas aeruginosa [14] = assay: Antibacterial activity against Pseudomonas aeruginosa MTCC 424 at 500 ug/ml after 48 hr by cup-plate method; conditions: MTCC 424, 48 h, read-out: DIZ
Bacillus pumilus [15] = assay: Antibacterial activity against Bacillus pumilus MTCC 1456 at 500 ug/ml after 48 hr by cup-plate method; conditions: MTCC 1456, 48 h, read-out: DIZ
Micrococcus luteus [16] = assay: Antibacterial activity against Micrococcus luteus MTCC 1538 at 1250 ug/ml after 48 hr by cup-plate method; conditions: MTCC 1538, 48 h, read-out: DIZ
Staphylococcus aureus [17] = assay: Antibacterial activity against Staphylococcus aureus MTCC 1430 at 1000 ug/ml after 48 hr by cup-plate method; conditions: MTCC 1430, 48 h, read-out: DIZ
Pseudomonas aeruginosa [18] = assay: Antibacterial activity against Pseudomonas aeruginosa MTCC 424 after 24 to 48 hr by tube dilution method
Pseudomonas aeruginosa [19] = assay: Antibacterial activity against Pseudomonas aeruginosa MTCC 424 at 100 ug/ml after 48 hr by cup-plate method; conditions: MTCC 424, 48 h, read-out: DIZ
Pseudomonas fluorescens [20] = assay: Antibacterial activity against Pseudomonas fluorescens MTCC 2421 at 500 ug/ml after 48 hr by cup-plate method; conditions: MTCC 2421, 48 h, read-out: DIZ
Escherichia coli [21] = assay: Antibacterial activity against Escherichia coli MTCC 1573 at 1250 ug/ml after 48 hr by cup-plate method; conditions: MTCC 1573, 48 h, read-out: DIZ
Escherichia coli [22] = assay: Antibacterial activity against Escherichia coli MTCC 1573 at 1000 ug/ml after 48 hr by cup-plate method; conditions: MTCC 1573, 48 h, read-out: DIZ
Bacillus pumilus [23] = assay: Antibacterial activity against Bacillus pumilus MTCC 1456 at 1250 ug/ml after 48 hr by cup-plate method; conditions: MTCC 1456, 48 h, read-out: DIZ
Escherichia coli [24] = assay: Antibacterial activity against Escherichia coli MTCC 1573 at 750 ug/ml after 48 hr by cup-plate method; conditions: MTCC 1573, 48 h, read-out: DIZ
Penicillium chrysogenum [25] = assay: Antifungal activity against Penicillium chrysogenum MTCC 161 at 1250 ug/ml after 48 hr by cup-plate method; conditions: MTCC 161, 48 h, read-out: DIZ
Aspergillus niger [26] = assay: Antifungal activity against Aspergillus niger MTCC 2546 at 500 ug/ml after 48 hr by cup-plate method; conditions: MTCC 2546, 48 h, read-out: DIZ
Penicillium chrysogenum [27] = assay: Antifungal activity against Penicillium chrysogenum MTCC 161 at 100 ug/ml after 48 hr by cup-plate method; conditions: MTCC 161, 48 h, read-out: DIZ
Bacillus subtilis [28] = assay: Antibacterial activity against Bacillus subtilis MTCC 441 at 1250 ug/ml after 48 hr by cup-plate method; conditions: MTCC 441, 48 h, read-out: DIZ
Bacillus pumilus [29] = assay: Antibacterial activity against Bacillus pumilus MTCC 1456 at 100 ug/ml after 48 hr by cup-plate method; conditions: MTCC 1456, 48 h, read-out: DIZ
Bacillus subtilis [30] = assay: Antibacterial activity against Bacillus subtilis MTCC 441 at 100 ug/ml after 48 hr by cup-plate method; conditions: MTCC 441, 48 h, read-out: DIZ
Escherichia coli [31] = assay: Antibacterial activity against Escherichia coli MTCC 1573 after 24 to 48 hr by tube dilution method
Penicillium chrysogenum [32] = assay: Antifungal activity against Penicillium chrysogenum MTCC 161 at 1000 ug/ml after 48 hr by cup-plate method; conditions: MTCC 161, 48 h, read-out: DIZ
Pseudomonas aeruginosa [33] = assay: Antibacterial activity against Pseudomonas aeruginosa MTCC 424 at 1250 ug/ml after 48 hr by cup-plate method; conditions: MTCC 424, 48 h, read-out: DIZ
Staphylococcus aureus [34] = assay: Antibacterial activity against Staphylococcus aureus MTCC 1430 at 250 ug/ml after 48 hr by cup-plate method; conditions: MTCC 1430, 48 h, read-out: DIZ
Aspergillus niger [35] = assay: Antifungal activity against Aspergillus niger MTCC 2546 at 1250 ug/ml after 48 hr by cup-plate method; conditions: MTCC 2546, 48 h, read-out: DIZ
Micrococcus luteus [36] = assay: Antibacterial activity against Micrococcus luteus MTCC 1538 at 500 ug/ml after 48 hr by cup-plate method; conditions: MTCC 1538, 48 h, read-out: DIZ
Pseudomonas aeruginosa [37] = assay: Antibacterial activity against Pseudomonas aeruginosa MTCC 424 at 1000 ug/ml after 48 hr by cup-plate method; conditions: MTCC 424, 48 h, read-out: DIZ
Bacillus subtilis [38] = assay: Antibacterial activity against Bacillus subtilis MTCC 441 at 750 ug/ml after 48 hr by cup-plate method; conditions: MTCC 441, 48 h, read-out: DIZ
Staphylococcus aureus [39] = assay: Antibacterial activity against Staphylococcus aureus MTCC 1430 at 750 ug/ml after 48 hr by cup-plate method; conditions: MTCC 1430, 48 h, read-out: DIZ
Penicillium chrysogenum [40] = assay: Antifungal activity against Penicillium chrysogenum MTCC 161 at 750 ug/ml after 48 hr by cup-plate method; conditions: MTCC 161, 48 h, read-out: DIZ
Micrococcus luteus [41] = assay: Antibacterial activity against Micrococcus luteus MTCC 1538 at 750 ug/ml after 48 hr by cup-plate method; conditions: MTCC 1538, 48 h, read-out: DIZ
Staphylococcus aureus [42] = assay: Antibacterial activity against Staphylococcus aureus MTCC 1430 after 24 to 48 hr by tube dilution method
Staphylococcus aureus [43] = assay: Antibacterial activity against Staphylococcus aureus MTCC 1430 at 500 ug/ml after 48 hr by cup-plate method; conditions: MTCC 1430, 48 h, read-out: DIZ

In the case of O=[N+]([O-])c1ccc(C2CC(c3cccc4ccccc34)=NN2)cc1 (stereo not drawn), the zone of inhibition at 250 µg/mL (Penicillium chrysogenum [1]) is reported as 9 mm, the zone of inhibition at 1000 µg/mL (Aspergillus niger [2]) is reported as 16 mm and the zone of inhibition at 750 µg/mL (Pseudomonas aeruginosa [3]) is reported as 12 mm. For the same compound, the zone of inhibition at 250 µg/mL (Bacillus pumilus [4]) was 9 mm, the zone of inhibition at 1000 µg/mL (Micrococcus luteus [5]) was 13 mm and the MIC (Bacillus pumilus [6]) was 30 µg/mL (≈ 94.5 µM). It also gave a zone of inhibition at 750 µg/mL (Pseudomonas fluorescens [7]) of 14 mm, a zone of inhibition at 1000 µg/mL (Pseudomonas fluorescens [8]) of 15 mm and a zone of inhibition at 1000 µg/mL (Bacillus subtilis [9]) of 16 mm. For the same compound, the zone of inhibition at 500 µg/mL (Penicillium chrysogenum [10]) was 10 mm, the zone of inhibition at 500 µg/mL (Bacillus subtilis [11]) was 13 mm and the zone of inhibition at 1250 µg/mL (Pseudomonas fluorescens [12]) was 17 mm. The zone of inhibition at 250 µg/mL (Micrococcus luteus [13]) was 10 mm, the zone of inhibition at 500 µg/mL (Pseudomonas aeruginosa [14]) was 11 mm and the zone of inhibition at 500 µg/mL (Bacillus pumilus [15]) was 10 mm. For the same compound, the zone of inhibition at 1250 µg/mL (Micrococcus luteus [16]) was 15 mm, the zone of inhibition at 1000 µg/mL (Staphylococcus aureus [17]) was 14 mm and the MIC (Pseudomonas aeruginosa [18]) was 30 µg/mL (≈ 94.5 µM). For the same compound, the zone of inhibition at 100 µg/mL (Pseudomonas aeruginosa [19]) was 9 mm, the zone of inhibition at 500 µg/mL (Pseudomonas fluorescens [20]) was 11 mm and the zone of inhibition at 1250 µg/mL (Escherichia coli [21]) was 18 mm. The zone of inhibition at 1000 µg/mL (Escherichia coli [22]) was 15 mm, the zone of inhibition at 1250 µg/mL (Bacillus pumilus [23]) was 22 mm and the zone of inhibition at 750 µg/mL (Escherichia coli [24]) was 13 mm. The zone of inhibition at 1250 µg/mL (Penicillium chrysogenum [25]) was 17 mm, the zone of inhibition at 500 µg/mL (Aspergillus niger [26]) was 10 mm and the zone of inhibition at 100 µg/mL (Penicillium chrysogenum [27]) was 8 mm. The zone of inhibition at 1250 µg/mL (Bacillus subtilis [28]) was 19 mm, the zone of inhibition at 100 µg/mL (Bacillus pumilus [29]) was 8 mm and the zone of inhibition at 100 µg/mL (Bacillus subtilis [30]) was 10 mm. The MIC (Escherichia coli [31]) was 200 µg/mL (≈ 630 µM), the zone of inhibition at 1000 µg/mL (Penicillium chrysogenum [32]) was 15 mm and the zone of inhibition at 1250 µg/mL (Pseudomonas aeruginosa [33]) was 15 mm. For the same compound, the zone of inhibition at 250 µg/mL (Staphylococcus aureus [34]) was 10 mm, the zone of inhibition at 1250 µg/mL (Aspergillus niger [35]) was 18 mm and the zone of inhibition at 500 µg/mL (Micrococcus luteus [36]) was 11 mm. For the same compound, the zone of inhibition at 1000 µg/mL (Pseudomonas aeruginosa [37]) was 13 mm, the zone of inhibition at 750 µg/mL (Bacillus subtilis [38]) was 15 mm and the zone of inhibition at 750 µg/mL (Staphylococcus aureus [39]) was 13 mm. For the same compound, the zone of inhibition at 750 µg/mL (Penicillium chrysogenum [40]) was 14 mm, the zone of inhibition at 750 µg/mL (Micrococcus luteus [41]) was 12 mm and the MIC (Staphylococcus aureus [42]) was 50 µg/mL (≈ 158 µM). The zone of inhibition at 500 µg/mL (Staphylococcus aureus [43]) was 11 mm.
